Assay results published in article PMC2931804 (Clinical cancer research : an official journal of the …, 2010).
Where two headings read alike, the source gives them in different places.

[1] = DL1 500 mg twice daily × 3 + sLV5FU2, 1st cycle, n = 3
[2] = DL1 500 mg twice daily × 3 + sLV5FU2, Any cycle, n = 3
[3] = DL1 600 mg once daily × 3 + sLV5FU2, 1st cycle, n = 3
[4] = DL1 600 mg once daily × 3 + sLV5FU2, Any cycle, n = 3
[5] = DL2 600 mg twice daily × 3 + sLV5FU2, 1st cycle, n = 6
[6] = DL2 600 mg twice daily × 3 + sLV5FU2, Any cycle, n = 6
[7] = DL2 800 mg once daily × 3 + sLV5FU2, 1st cycle, n = 3
[8] = DL2 800 mg once daily × 3 + sLV5FU2, Any cycle, n = 3
[9] = DL3 800 mg twice daily × 3 + sLV5FU2, 1st cycle, n = 3
[10] = DL3 800 mg twice daily × 3 + sLV5FU2, Any cycle, n = 3

SMILES: O=C(CCCCCCC(=O)Nc1ccccc1)NO [vorinostat, suberoylanilide hydroxamic acid]
- Dose-limiting toxicities (800 mg vorinostat twice-daily dose level + sLV5FU2): Grade 3 fatigue and mucositis
- Dose-limiting toxicities (2,000 mg vorinostat once-daily dose level + sLV5FU2): Grade 3 fatigue, and hand and foot syndrome
- ATE, treatment-related, patients (G2/G3/G4) [1]: 0/0/0
- Anemia, treatment-related, patients (G2/G3/G4) [1]: 0/0/0
- Anorexia, treatment-related, patients (G2/G3/G4) [1]: 0/0/0
- Chelitis, treatment-related, patients (G2/G3/G4) [1]: 0/0/0
- Dehydration, treatment-related, patients (G2/G3/G4) [1]: 0/0/0
- Diarrhea, treatment-related, patients (G2/G3/G4) [1]: 1/0/0
- Esophagitis, treatment-related, patients (G2/G3/G4) [1]: 0/0/0
- Fatigue, treatment-related, patients (G2/G3/G4) [1]: 2/0/0
- Fever, treatment-related, patients (G2/G3/G4) [1]: 0/0/0
- Headache, treatment-related, patients (G2/G3/G4) [1]: 0/0/0
- Mucositis, treatment-related, patients (G2/G3/G4) [1]: 0/0/0
- Nausea, treatment-related, patients (G2/G3/G4) [1]: 1/0/0
- Neutropenia, treatment-related, patients (G2/G3/G4) [1]: 0/0/0
- Thrombocytopenia, treatment-related, patients (G2/G3/G4) [1]: 0/0/0
- VTE, treatment-related, patients (G2/G3/G4) [1]: 0/0/0
- Vomiting, treatment-related, patients (G2/G3/G4) [1]: 1/0/0
- ATE, treatment-related, patients (G2/G3/G4) [2]: 0/0/0
- Anemia, treatment-related, patients (G2/G3/G4) [2]: 0/0/0
- Anorexia, treatment-related, patients (G2/G3/G4) [2]: 2/0/0
- Chelitis, treatment-related, patients (G2/G3/G4) [2]: 0/0/0
- Dehydration, treatment-related, patients (G2/G3/G4) [2]: 0/0/0
- Diarrhea, treatment-related, patients (G2/G3/G4) [2]: 1/0/0
- Esophagitis, treatment-related, patients (G2/G3/G4) [2]: 1/0/0
- Fatigue, treatment-related, patients (G2/G3/G4) [2]: 3/0/0
- Fever, treatment-related, patients (G2/G3/G4) [2]: 1/0/0
- Headache, treatment-related, patients (G2/G3/G4) [2]: 0/0/0
- Mucositis, treatment-related, patients (G2/G3/G4) [2]: 1/0/0
- Nausea, treatment-related, patients (G2/G3/G4) [2]: 2/0/0
- Neutropenia, treatment-related, patients (G2/G3/G4) [2]: 0/0/0
- Thrombocytopenia, treatment-related, patients (G2/G3/G4) [2]: 0/0/0
- VTE, treatment-related, patients (G2/G3/G4) [2]: 0/0/0
- Vomiting, treatment-related, patients (G2/G3/G4) [2]: 1/0/0
- Anemia, treatment-related, patients (G2/G3/G4) [3]: 1/0/0
- Anorexia, treatment-related, patients (G2/G3/G4) [3]: 1/0/0
- DVT/PE, treatment-related, patients (G2/G3/G4) [3]: 0/0/0
- Dehydration, treatment-related, patients (G2/G3/G4) [3]: 0/0/0
- Diarrhea, treatment-related, patients (G2/G3/G4) [3]: 0/0/0
- Fatigue, treatment-related, patients (G2/G3/G4) [3]: 1/0/0
- GI bleed, treatment-related, patients (G2/G3/G4) [3]: 0/0/0
- Hand and Foot, treatment-related, patients (G2/G3/G4) [3]: 0/0/0
- Infection, treatment-related, patients (G2/G3/G4) [3]: 0/0/0
- Mucositis, treatment-related, patients (G2/G3/G4) [3]: 0/0/0
- Nausea, treatment-related, patients (G2/G3/G4) [3]: 1/0/0
- Neutropenia, treatment-related, patients (G2/G3/G4) [3]: 0/0/0
- Thrombocytopenia, treatment-related, patients (G2/G3/G4) [3]: 1/0/0
- Vomiting, treatment-related, patients (G2/G3/G4) [3]: 0/0/0
- Weight Loss, treatment-related, patients (G2/G3/G4) [3]: 0/0/0
- Anemia, treatment-related, patients (G2/G3/G4) [4]: 1/0/0
- Anorexia, treatment-related, patients (G2/G3/G4) [4]: 1/0/0
- Creatinine, treatment-related, patients (G2/G3/G4) [4]: 1/0/0
- DVT/PE, treatment-related, patients (G2/G3/G4) [4]: 0/0/0
- Dehydration, treatment-related, patients (G2/G3/G4) [4]: 1/0/0
- Diarrhea, treatment-related, patients (G2/G3/G4) [4]: 0/1/0
- Fatigue, treatment-related, patients (G2/G3/G4) [4]: 2/0/0
- GI bleed, treatment-related, patients (G2/G3/G4) [4]: 0/0/0
- Hand and Foot, treatment-related, patients (G2/G3/G4) [4]: 0/0/0
- Infection, treatment-related, patients (G2/G3/G4) [4]: 0/0/0
- Mucositis, treatment-related, patients (G2/G3/G4) [4]: 2/0/0
- Nausea, treatment-related, patients (G2/G3/G4) [4]: 1/0/0
- Neutropenia, treatment-related, patients (G2/G3/G4) [4]: 0/0/0
- Thrombocytopenia, treatment-related, patients (G2/G3/G4) [4]: 1/0/0
- Vomiting, treatment-related, patients (G2/G3/G4) [4]: 1/0/0
- Weight Loss, treatment-related, patients (G2/G3/G4) [4]: 0/0/0
- DLT (DL1 (500 mg twice daily × 3) and DL2 (600 mg twice daily), three patients each): without any DLT
- ATE, treatment-related, patients (G2/G3/G4) [5]: 0/0/0
- Anemia, treatment-related, patients (G2/G3/G4) [5]: 1/0/0
- Anorexia, treatment-related, patients (G2/G3/G4) [5]: 2/0/0
- Chelitis, treatment-related, patients (G2/G3/G4) [5]: 0/0/0
- Dehydration, treatment-related, patients (G2/G3/G4) [5]: 0/0/0
- Diarrhea, treatment-related, patients (G2/G3/G4) [5]: 1/0/0
- Esophagitis, treatment-related, patients (G2/G3/G4) [5]: 0/0/0
- Fatigue, treatment-related, patients (G2/G3/G4) [5]: 3/0/0
- Fever, treatment-related, patients (G2/G3/G4) [5]: 0/0/0
- Headache, treatment-related, patients (G2/G3/G4) [5]: 0/0/0
- Mucositis, treatment-related, patients (G2/G3/G4) [5]: 0/0/0
- Nausea, treatment-related, patients (G2/G3/G4) [5]: 3/0/0
- Neutropenia, treatment-related, patients (G2/G3/G4) [5]: 0/0/0
- Thrombocytopenia, treatment-related, patients (G2/G3/G4) [5]: 0/1/0
- VTE, treatment-related, patients (G2/G3/G4) [5]: 0/0/0
- Vomiting, treatment-related, patients (G2/G3/G4) [5]: 1/0/0
- ATE, treatment-related, patients (G2/G3/G4) [6]: 0/0/0
- Anemia, treatment-related, patients (G2/G3/G4) [6]: 1/1/0
- Anorexia, treatment-related, patients (G2/G3/G4) [6]: 2/0/0
- Chelitis, treatment-related, patients (G2/G3/G4) [6]: 0/0/0
- Dehydration, treatment-related, patients (G2/G3/G4) [6]: 2/0/0
- Diarrhea, treatment-related, patients (G2/G3/G4) [6]: 1/0/0
- Esophagitis, treatment-related, patients (G2/G3/G4) [6]: 0/0/0
- Fatigue, treatment-related, patients (G2/G3/G4) [6]: 3/1/0
- Fever, treatment-related, patients (G2/G3/G4) [6]: 0/0/1
- Headache, treatment-related, patients (G2/G3/G4) [6]: 0/1/0
- Mucositis, treatment-related, patients (G2/G3/G4) [6]: 0/0/0
- Nausea, treatment-related, patients (G2/G3/G4) [6]: 3/0/0
- Neutropenia, treatment-related, patients (G2/G3/G4) [6]: 0/0/0
- Thrombocytopenia, treatment-related, patients (G2/G3/G4) [6]: 0/0/1
- VTE, treatment-related, patients (G2/G3/G4) [6]: 0/0/0
- Vomiting, treatment-related, patients (G2/G3/G4) [6]: 1/0/0
- Patients with DLT (DL2 600 mg twice daily × 3 + sLV5FU2, six patients): None and without any DLT
- Anemia, treatment-related, patients (G2/G3/G4) [7]: 1/0/0
- Anorexia, treatment-related, patients (G2/G3/G4) [7]: 1/0/0
- Creatinine, treatment-related, patients (G2/G3/G4) [7]: 1/0/0
- DVT/PE, treatment-related, patients (G2/G3/G4) [7]: 0/0/0
- Dehydration, treatment-related, patients (G2/G3/G4) [7]: 0/0/0
- Diarrhea, treatment-related, patients (G2/G3/G4) [7]: 0/0/0
- Fatigue, treatment-related, patients (G2/G3/G4) [7]: 1/0/0
- GI bleed, treatment-related, patients (G2/G3/G4) [7]: 0/0/0
- Hand and Foot, treatment-related, patients (G2/G3/G4) [7]: 0/0/0
- Infection, treatment-related, patients (G2/G3/G4) [7]: 0/0/0
- Mucositis, treatment-related, patients (G2/G3/G4) [7]: 0/0/0
- Nausea, treatment-related, patients (G2/G3/G4) [7]: 1/0/0
- Neutropenia, treatment-related, patients (G2/G3/G4) [7]: 0/0/0
- Thrombocytopenia, treatment-related, patients (G2/G3/G4) [7]: 1/0/0
- Vomiting, treatment-related, patients (G2/G3/G4) [7]: 0/0/0
- Weight Loss, treatment-related, patients (G2/G3/G4) [7]: 0/0/0
- Anemia, treatment-related, patients (G2/G3/G4) [8]: 1/0/0
- Anorexia, treatment-related, patients (G2/G3/G4) [8]: 2/0/0
- DVT/PE, treatment-related, patients (G2/G3/G4) [8]: 0/0/0
- Dehydration, treatment-related, patients (G2/G3/G4) [8]: 0/0/0
- Diarrhea, treatment-related, patients (G2/G3/G4) [8]: 1/0/0
- Fatigue, treatment-related, patients (G2/G3/G4) [8]: 2/0/0
- GI bleed, treatment-related, patients (G2/G3/G4) [8]: 0/0/0
- Hand and Foot, treatment-related, patients (G2/G3/G4) [8]: 0/0/0
- Infection, treatment-related, patients (G2/G3/G4) [8]: 0/0/0
- Mucositis, treatment-related, patients (G2/G3/G4) [8]: 0/0/0
- Nausea, treatment-related, patients (G2/G3/G4) [8]: 2/0/0
- Neutropenia, treatment-related, patients (G2/G3/G4) [8]: 0/0/0
- Thrombocytopenia, treatment-related, patients (G2/G3/G4) [8]: 1/0/0
- Vomiting, treatment-related, patients (G2/G3/G4) [8]: 0/0/0
- Weight Loss, treatment-related, patients (G2/G3/G4) [8]: 0/0/0
- ATE, treatment-related, patients (G2/G3/G4) [9]: 0/0/0
- Anemia, treatment-related, patients (G2/G3/G4) [9]: 0/0/0
- Anorexia, treatment-related, patients (G2/G3/G4) [9]: 1/0/0
- Chelitis, treatment-related, patients (G2/G3/G4) [9]: 1/0/0
- Dehydration, treatment-related, patients (G2/G3/G4) [9]: 2/0/0
- Diarrhea, treatment-related, patients (G2/G3/G4) [9]: 1/0/0
- Esophagitis, treatment-related, patients (G2/G3/G4) [9]: 1/0/0
- Fever, treatment-related, patients (G2/G3/G4) [9]: 0/0/0
- Headache, treatment-related, patients (G2/G3/G4) [9]: 0/0/0
- Nausea, treatment-related, patients (G2/G3/G4) [9]: 0/0/0
- Neutropenia, treatment-related, patients (G2/G3/G4) [9]: 0/0/0
- Thrombocytopenia, treatment-related, patients (G2/G3/G4) [9]: 3/0/0
- VTE, treatment-related, patients (G2/G3/G4) [9]: 0/0/0
- Vomiting, treatment-related, patients (G2/G3/G4) [9]: 0/0/0
- ATE, treatment-related, patients (G2/G3/G4) [10]: 0/0/1
- Anemia, treatment-related, patients (G2/G3/G4) [10]: 0/2/0
- Anorexia, treatment-related, patients (G2/G3/G4) [10]: 2/0/0
- Chelitis, treatment-related, patients (G2/G3/G4) [10]: 2/0/0
- Dehydration, treatment-related, patients (G2/G3/G4) [10]: 2/0/0
- Diarrhea, treatment-related, patients (G2/G3/G4) [10]: 0/1/0
- Esophagitis, treatment-related, patients (G2/G3/G4) [10]: 1/0/0
- Fatigue, treatment-related, patients (G2/G3/G4) [10]: 1/2/0
- Fever, treatment-related, patients (G2/G3/G4) [10]: 0/0/0
- Headache, treatment-related, patients (G2/G3/G4) [10]: 0/0/0
- Mucositis, treatment-related, patients (G2/G3/G4) [10]: 2/1/1
